According to patent US20140187594A1, “DIPHENYL ETHER COMPOUNDS FOR THE TREATMENT OF LIVER, LUNG DISORDERS, DIABETIC COMPLICATIONS AND CARDIOVASCULAR DISEASES” (ORCHID CHEMICALS AND PHARMACEUTICALS LTD, priority 2010, published 2014):

Experiments:
[1] = target: T1, Rat lens Aldose reductase (Rattus norvegicus, UniProt P07943); assay: Aldose reductase inhibitory activity; type: biochemical; settings: rat lens enzyme, 0.2 mM NADPH, pH 6.2, 25° C.
T1 construct: Rat lens Aldose reductase is used; from tissue; host or cells: rat lens
Procedure: Rat lens Aldose reductase is used. Test compound and/or vehicle is preincubated with 3000 μg/ml enzyme (J. Enzyme Inhib. 1993, 7, 249-256; Biol. Pharm. Bull. 1994, 17, 458-459) and 0.2 mM NADPH in phosphate buffer pH 6.2 for 15 minutes at 25° C. The reaction is initiated by addition of 10 mM DL-glyceraldehyde and incubated for another 20 minutes. Determination of the amount of NADPH remained is read spectrophotometrically. Compounds are screened at 10 μM. Since enzyme activity may change from lot to lot, the concentration used will be adjusted if necessary.

[2] = target: T2, Matrix metalloproteinase-2 (MMP-2) (Homo sapiens, UniProt P08253); assay: Matrix metalloproteinase-2 (MMP-2) inhibitory activity; type: biochemical
T2 sequence (P08253 110-660): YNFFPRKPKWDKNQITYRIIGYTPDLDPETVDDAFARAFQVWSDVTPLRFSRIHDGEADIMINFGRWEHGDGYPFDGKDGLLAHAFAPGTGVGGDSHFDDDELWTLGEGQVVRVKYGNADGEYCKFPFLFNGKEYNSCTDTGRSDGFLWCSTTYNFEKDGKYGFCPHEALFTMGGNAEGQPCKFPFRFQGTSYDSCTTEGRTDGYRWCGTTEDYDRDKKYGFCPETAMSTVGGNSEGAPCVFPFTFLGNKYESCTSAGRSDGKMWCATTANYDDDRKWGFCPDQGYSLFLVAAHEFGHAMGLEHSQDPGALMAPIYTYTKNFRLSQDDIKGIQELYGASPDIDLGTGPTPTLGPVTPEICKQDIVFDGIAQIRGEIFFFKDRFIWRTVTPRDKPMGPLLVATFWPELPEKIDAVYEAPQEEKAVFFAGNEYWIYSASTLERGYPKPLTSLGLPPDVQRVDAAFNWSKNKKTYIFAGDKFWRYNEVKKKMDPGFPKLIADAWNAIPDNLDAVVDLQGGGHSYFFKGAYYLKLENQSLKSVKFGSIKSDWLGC
Procedure: 3. Matrix Metalloproteinase-2 (MMP-2) Inhibitory Activity (at 10 μM)
MMP-2 enzymes are implicated in lung metastasis and there inhibition is useful to prevent or treat lung metastasis (Journal of Ethnopharmacology 2011, 133, 426-433).

[3] = tested on: Hepatic stellate cells (LX2); assay: Induction of apoptosis in hepatic stellate cells (LX2), propidium iodide staining; type: cell-based; settings: 8 hours, PI staining
Source text: Propidium iodide (PI) has been widely used to measure apoptosis in different experimental systems (Eur. J. Pharmacol., 2003, 473, 117-125; Br. J. Pharmacol., 2009, 158, 1720-1734). […] Next, cells were washed with PBS for 2 times to remove unbound PI and the fluorescence images were acquired with DP71 camera adapted to an Olympus IX71 microscope. Apoptotic cells were detected by propidium iodide (PI) staining and % apoptotic cells per field were estimated. Number of PI positive cells and total number of cells were counted from the images and plotted as percentage of apoptotic cells per field.

[4] = tested on: human endothelial cells (ECV 304); assay: Selectivity of apoptosis induction: endothelial cells; type: cell-based; settings: ECV 304, PI staining
Procedure: (§1) Propidium iodide (PI) has been widely used to measure apoptosis in different experimental systems (Eur. J. Pharmacol., 2003, 473, 117-125; Br. J. Pharmacol., 2009, 158, 1720-1734). The LX2 cells were treated with vehicle (DMSO), staurosporine (0.1 nM), compound of formula (B) (2 μM), compound of formula (C) (2 μM) for 8 hours followed by propidium iodide (PI) for 10 minute. Next, cells were washed with PBS for 2 times to remove unbound PI and the fluorescence images were acquired with DP71 camera adapted to an Olympus IX71 microscope. Apoptotic cells were detected by propidium iodide (PI) staining and % apoptotic cells per field were estimated. Number of PI positive cells and total number of cells were counted from the images and plotted as percentage of apoptotic cells per field.
(§2) The methodology adopted is same as in Experiment-7 above.
(§3) Apoptotic cells were detected by propidium iodide (PI) staining and % apoptotic cells per field were estimated.

[5] = tested on: human fibroblast cells isolated from skin biopsies; assay: Selectivity of apoptosis induction: skin fibroblasts; type: cell-based; settings: PI staining
Procedure: as §1, §2, §3

[6] = tested on: human hepatocytes (HepG2); assay: Selectivity of apoptosis induction: hepatocytes; type: cell-based; settings: HepG2, PI staining
3T3-L1 fibroblasts = assay: Adipogenesis in 3T3-L1 mouse fibroblast (oil red O staining); type: cell-based; settings: 1 μM or 10 μM, 7 days
Procedure: 3T3-L1 fibroblasts were seeded at a concentration of 10,000 cells/well in 24 well tissue culture plates in a total volume of 1 mL Dulbecco's Modified Eagle Medium (DMEM media) containing 10% fetal bovine serum, penicillin and streptomycin. […] After every two days, the media contents were replaced with fresh media and the drug. This process was carried out for 7 days. After 7 days of treatment, the cells were fixed in 10% formalin for 1 hour at […], stained with oil red 0 solution for 10 minutes and washed 6 times with 1×PBS to remove the excess stain. The plates were dried and visualized under 40× objective using Nikon E200 microscope and the pictures were taken by Nikon DXM 1200C digital camera.

collagen type 1 = assay: Collagen type 1 secretion in activated hepatic stellate cells (western blot); type: cell-based; settings: overnight incubation, FIGS. 35a & 35b
Procedure: HSC cells were treated with the drugs and incubated overnight. The conditioned media was taken out and the secreted proteins were extracted using TCA-acetone method. The cells were harvested for western blot analysis and 1% SDS was added to the sample. Proteins were detected by using 1:500 dilution of polyclonal antibody to collagen type 1 (Abcam; AB292) and 1:1000 dilutions of goat anti-rabbit IgG conjugated to horseradish peroxidase (Bangalore GENEI). The blots were developed by using substrate TMB/H2O2. Loading control was performed using the β-actin house keeping gene expression level.

[7] = 48 weeks, 4 mg twice daily; Hepatology, 2003, 38, 1008-1017; cited from earlier work

Compound	IC50 [1] [µM]	inhibition at 10 µM [2] [%]	% apoptotic cells per field ([3]; 2 μM) [%]	apoptosis vs vehicle (DMSO) [4]	apoptosis vs vehicle (DMSO) [5]	apoptosis vs vehicle (DMSO) [6]	adipogenesis (intracellular lipids stained with oil red O) (3T3-L1 fibroblasts)	Collagen secretion by activated hepatic stellate cells (collagen type 1)	median weight gain increase [7] [%]	patients in whom weight gain occurred [7] [%]	% apoptotic cells per field ([3]; 0.1 nM)
N[C@@H](Cc1ccc(Oc2ccc(CC3SC(=O)NC3=O)cc2)cc1)C(=O)O (stereo partly drawn) [Compound of formula (B), (2S)-2-Amino-3-(4-{4-[(2,4-dioxo-1,3-thiazolidin-5-yl)methyl]phenoxy}phenyl)propanoic acid]	4.92	59	6±0.40	no significant apoptosis	no significant apoptosis	no significant apoptosis	did not induce adipogenesis	markedly decreased			
O=C(O)Cc1ccc(Oc2ccc(CC3SC(=O)NC3=O)cc2)cc1 (stereo not shown) [Compound of formula (C), (4-{4-[(2,4-Dioxo-1,3-thiazolidin-5-yl)methyl]phenoxy}phenyl)acetic acid]	1.43	16	7.5±0.64	no significant apoptosis	no significant apoptosis	no significant apoptosis	did not induce adipogenesis	markedly decreased			
CN(CCOc1ccc(CC2SC(=O)NC2=O)cc1)c1ccccn1 (stereo not shown) [Rosiglitazone]									7.3	67	
CN[C@@H]1C[C@H]2O[C@@](C)([C@@H]1OC)n1c3ccccc3c3c4c(c5c6ccccc6n2c5c31)C(=O)NC4 [staurosporine, reference compound]											approximately 23%
